Results published in US6334944B1, “Process for producing an amino acid-N,N-diacetic acid and its salts” (Showa Denko K.K., priority 1998, dated 2002).

Test: Hygroscopicity and redissolution of dried powder or crystal
Format: physicochemical
Details: for Hygroscopicity: dried powder or crystal
Procedure: The powder contained 9.98% of calcium.
The crystal was dried in air at 25° C. to reduce the moisture content to 0.7%.

| Compound | Hygroscopicity | Dissolution of powder in water (spray-dried powder) |
| --- | --- | --- |
| calcium disodium glutamic acid-N,N-diacetate [Example 13] | free of hygroscopicity | readily dissolved in water |
| O=C([O-])CCC(C(=O)[O-])N(CC(=O)[O-])CC(=O)[O-].[Fe+3].[NH4+] (stereo not drawn) [Example 22, ammonium ferric salt of glutamic acid-N,N-diacetic acid] | free of hygroscopicity | – |
